Assay results from patent publication US5798247A, “Organic-chemical compound with ice-inhibitory action” (BASF Aktiengesellschaft, priority 1997, dated 1998).

Molecular target: T1, interleukin converting enzyme (ICE) (Homo sapiens, UniProt P29466)
T1 sequence (P29466 120-297 limits assumed): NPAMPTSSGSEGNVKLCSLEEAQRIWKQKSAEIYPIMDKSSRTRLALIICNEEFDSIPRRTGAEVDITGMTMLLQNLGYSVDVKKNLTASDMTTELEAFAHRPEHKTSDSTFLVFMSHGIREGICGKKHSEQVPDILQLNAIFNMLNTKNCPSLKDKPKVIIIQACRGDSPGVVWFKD
T1 sequence (P29466 317-404 limits assumed): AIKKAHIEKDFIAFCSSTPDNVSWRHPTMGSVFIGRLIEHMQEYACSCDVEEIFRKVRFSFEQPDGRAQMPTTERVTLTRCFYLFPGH
Assay: ICE inhibition (inhibition constant)
Type: biochemical
Settings: reversible covalent binding (thiohemiacetal linkage) to ICE

Ki: ~1000 nM
Compound: O=C(c1ccccc1)c1ccccn1 [2-Benzoylpyridine]
